# Measured values: the supplement of paper PMC10307832
# Compound: CCN1CCN(c2ccc(Nc3cc(N(C)C(=O)Nc4c(Cl)c(OC)cc(OC)c4Cl)ncn3)cc2)CC1 [BGJ398] + Cc1nc(Nc2ncc(C(=O)Nc3c(C)cccc3Cl)s2)cc(N2CCN(CCO)CC2)n1 [Dasatinib] (partner 0.075 µM)
# Test: relative viability (nuclei count vs DMSO), 5 days (fraction); higher = more cells survive
# Details: first compound 1 µM
# Method in brief: (§1)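 Lung cancer cell lines, seeded in 1536-well plates, were treated the following day by pin tool with a single drug or with five library-drug doses (not always all listed) in √10 steps on top of a fixed anchor-drug dose. Cells were fixed and nuclei stained in one step after 5 days, and nuclei were counted. Relative viability is the nuclei count for treated wells divided by that for vehicle wells, reported as medians of duplicate plates.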
row,Cell Line,relative viability
1,HCC-366,0.558
2,NCI-H1666,0.697
3,NCI-H596,0.474
4,LK-2,0.179
5,NCI-H2087,0.871
6,NCI-H2342,0.295
7,SK-MES-1,0.418
8,NCI-H2170,0.558
9,SW 900,0.232
10,NCI-H1395,0.313
11,NCI-H1792,0.343
12,NCI-H1793,0.276
13,NCI-H1563,0.329
14,NCI-H1944,0.203
15,ABC-1,0.515
16,NCI-H358,0.205

# Compound: CCN1CCN(c2ccc(Nc3cc(N(C)C(=O)Nc4c(Cl)c(OC)cc(OC)c4Cl)ncn3)cc2)CC1 [BGJ398] + CC(C)C[C@H](NC(=O)[C@H](Cc1ccccc1)NC(=O)c1cnccn1)B(O)O [Bortezomib] (partner 0.002 µM)
# Test: as above
# Details: first compound 0.01 µM
# Method in brief: as §1
row,Cell Line,relative viability
1,NCI-H727,0.899
2,NCI-H1650,0.22
3,EBC-1,0.616
4,NCI-H1703,0.451
5,NCI-H1993,1.17
6,SW 1573,0.948
7,NCI-H838,0.636
8,LCLC-103H,1.15
9,NCI-H520,0.538
10,NCI-H2126,1.14
11,EMC-BAC-2,1.05
12,NCI-H2085,1.02
13,Calu-6,0.923
14,HCC-366,1.07
15,NCI-H1666,0.88
16,NCI-H596,0.988
17,NCI-H2087,0.725
18,IA-LM,0.741
19,HCC-44,0.938
20,NCI-H1299,0.982
21,NCI-H1792,0.936
22,NCI-H1563,0.931
23,ABC-1,0.306

# Same assay, conditions: first compound 0.03162 µM
row,Cell Line,relative viability
1,NCI-H727,0.822
2,NCI-H1650,0.203
3,EBC-1,0.614
4,NCI-H1703,0.467
5,NCI-H1993,0.753
6,SW 1573,1.05
7,NCI-H838,0.921
8,LCLC-103H,1.02
9,NCI-H520,0.54
10,NCI-H2126,1.1
11,EMC-BAC-2,1
12,NCI-H2085,1.07
13,Calu-6,0.963
14,HCC-366,1.1
15,NCI-H1666,0.774
16,NCI-H596,0.72
17,NCI-H2087,0.699
18,IA-LM,0.928
19,HCC-44,0.84
20,NCI-H1299,1.06
21,NCI-H1792,0.963
22,NCI-H1563,0.802
23,ABC-1,0.34

# Same assay, conditions: first compound 0.1 µM
row,Cell Line,relative viability
1,NCI-H727,0.796
2,NCI-H1650,0.184
3,EBC-1,0.589
4,NCI-H1703,0.253
5,NCI-H1993,1.2
6,SW 1573,0.909
7,NCI-H838,0.655
8,LCLC-103H,1.07
9,NCI-H520,0.259
10,NCI-H2126,1.11
11,EMC-BAC-2,1.14
12,NCI-H2085,1.02
13,Calu-6,1.01
14,HCC-366,1.15
15,NCI-H1666,0.793
16,NCI-H596,0.96
17,NCI-H2087,0.806
18,IA-LM,0.905
19,HCC-44,0.869
20,NCI-H1299,1.02
21,NCI-H1792,1.11
22,NCI-H1563,0.778
23,ABC-1,0.287

# Same assay, conditions: first compound 0.3162 µM
row,Cell Line,relative viability
1,NCI-H727,0.882
2,NCI-H1650,0.174
3,EBC-1,0.53
4,NCI-H1703,0.261
5,NCI-H1993,1.23
6,SW 1573,0.964
7,NCI-H838,0.776
8,LCLC-103H,0.963
9,NCI-H520,0.201
10,NCI-H2126,1.11
11,EMC-BAC-2,1.08
12,NCI-H2085,0.983
13,Calu-6,1.07
14,HCC-366,1.09
15,NCI-H1666,0.816
16,NCI-H596,1.04
17,NCI-H2087,0.848
18,IA-LM,0.822
19,HCC-44,0.828
20,NCI-H1299,1.01
21,NCI-H1792,0.926
22,NCI-H1563,0.674
23,ABC-1,0.321

# Same assay, conditions: first compound 1 µM
row,Cell Line,relative viability
1,NCI-H727,0.774
2,NCI-H1650,0.19
3,EBC-1,0.526
4,NCI-H1703,0.457
5,NCI-H1993,1.19
6,SW 1573,0.91
7,NCI-H838,0.5
8,LCLC-103H,0.875
9,NCI-H520,0.162
10,NCI-H2126,1.12
11,EMC-BAC-2,1.01
12,NCI-H2085,1.15
13,Calu-6,0.982
14,HCC-366,0.991
15,NCI-H1666,0.629
16,NCI-H596,0.769
17,NCI-H2087,0.602
18,IA-LM,0.788
19,HCC-44,0.713
20,NCI-H1299,1.01
21,NCI-H1792,0.942
22,NCI-H1563,0.71
23,ABC-1,0.299
